The values that follow come from ChEMBL document CHEMBL4340512, “Discovery of novel triazolo[4,3-b]pyridazin-3-yl-quinoline derivatives as PIM inhibitors” (Eur J Med Chem, 2019).

Assay [1] concerns DU-145. The experiment in a line: Antiproliferative activity against human DU145 assessed as combination index at 20 uM incubated for 72 hrs in presence of GI50 dose of Lapatinib by CellTiter-Glo luminescence assay. The class given is functional. Background: ATP-based viability assays read luminescence as a measure of living cells.
For assay [2], the system named is SK-MEL19. Description: Antiproliferative activity against human SK-MEL-19 assessed as combination index at 5 uM incubated for 72 hrs in presence of GI50 dose of Lapatinib by CellTiter-Glo luminescence assay. The class given is functional.
Assay [3] relates to U-87 MG. Description: Antiproliferative activity against human U87MG assessed as combination index at 20 uM incubated for 72 hrs in presence of GI50 dose of Lapatinib by CellTiter-Glo luminescence assay. The class given is functional, U-87MG ATCC.
In assay [4] the test system is NCI-H522. The experiment in a line: Antiproliferative activity against human NCI-H522 cells incubated for 72 hrs by CellTiter-Glo luminescence assay. The class given is functional. Particulars: NCI-H522, 72 h.
The test system of assay [5] is BT-549. The experiment in a line: Antiproliferative activity against human BT549 cells incubated for 72 hrs by CellTiter-Glo luminescence assay. Particulars: BT-549, 72 h. The class given is functional.
Assay [6] relates to NAMALVA. Description: Antiproliferative activity against human NAMALWA cells incubated for 72 hrs by CellTiter-Glo luminescence assay. The class given is functional.

Molecules are shown by their SMILES.

A word on the GI50: it is the concentration at which growth is held to half of that of the control. A higher GI50 goes with lower sensitivity of the cells. Regarding `COCCN1CCOc2c1cnn1c(-c3ccc4cccc(NCC5CCNCC5)c4n3)nnc21`, the values for the CI in assay [1], in assay [2] and in assay [3] were 0.0001, 0.508 and 0.43, respectively. Also, the GI50 was found to be 9.7 µM in assay [4], 20.4 µM in assay [5] and 9.68 µM in assay [6].
